From patent publication US6544768B1, “Mammalian soluble adenylyl cyclase” (Cornell Research Foundation, Inc., priority 1999, dated 2003)
Like-named read-outs stand apart in the source and are kept apart here. Values belong to the molecule of their own block, whether it stands above or below them.

How the values were obtained:
truncated form of sAC = target: T1, truncated form of sAC (Rattus norvegicus, UniProt Q9Z286); assay: P site ligand test on truncated sAC; assay type: biochemical
T1 construct: sACt, amino acids 1-469
T1 sequence (Q9Z286 1-469): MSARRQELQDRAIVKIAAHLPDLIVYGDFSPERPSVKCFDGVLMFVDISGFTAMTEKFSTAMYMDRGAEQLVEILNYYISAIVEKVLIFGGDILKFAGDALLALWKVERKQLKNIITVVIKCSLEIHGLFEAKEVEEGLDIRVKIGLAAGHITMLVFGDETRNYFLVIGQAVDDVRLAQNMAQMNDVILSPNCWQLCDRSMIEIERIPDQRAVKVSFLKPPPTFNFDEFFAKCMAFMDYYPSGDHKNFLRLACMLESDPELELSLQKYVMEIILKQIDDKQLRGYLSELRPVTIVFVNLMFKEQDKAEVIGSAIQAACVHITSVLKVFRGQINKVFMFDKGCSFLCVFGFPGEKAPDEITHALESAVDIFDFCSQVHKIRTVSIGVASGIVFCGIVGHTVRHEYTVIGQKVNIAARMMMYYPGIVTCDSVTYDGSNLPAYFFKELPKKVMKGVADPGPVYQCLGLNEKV
Source text: (3) P site ligands and inhibitors of other ATP-utilizing enzymes.

sAC [1] = details: read-out: Km of sAC for substrate ATP; cited from earlier work
tmACs = details: read-out: Km of tmACs for substrate ATP; cited from earlier work
sAC [2] = assay: Soluble adenylyl cyclase activity in cytosolic extracts from rat testis; details: read-out: Km for ATP; in the presence of MnCl2
[3] = target: T2, full-length and truncated forms of sAC (Rattus norvegicus, UniProt Q9Z286); assay: Adenylyl cyclase assay in whole-cell sonicates from sAC-transfected HEK293 cells; assay type: biochemical; details: both full-length and truncated forms
T2 construct: we heterologously expressed the full-length cDNA in HEK293 cells; expressed in transfected cells; host or cells: HEK293, transient, pBK-CMV
T2 sequence (Q9Z286 whole entry, the tested form may be a part): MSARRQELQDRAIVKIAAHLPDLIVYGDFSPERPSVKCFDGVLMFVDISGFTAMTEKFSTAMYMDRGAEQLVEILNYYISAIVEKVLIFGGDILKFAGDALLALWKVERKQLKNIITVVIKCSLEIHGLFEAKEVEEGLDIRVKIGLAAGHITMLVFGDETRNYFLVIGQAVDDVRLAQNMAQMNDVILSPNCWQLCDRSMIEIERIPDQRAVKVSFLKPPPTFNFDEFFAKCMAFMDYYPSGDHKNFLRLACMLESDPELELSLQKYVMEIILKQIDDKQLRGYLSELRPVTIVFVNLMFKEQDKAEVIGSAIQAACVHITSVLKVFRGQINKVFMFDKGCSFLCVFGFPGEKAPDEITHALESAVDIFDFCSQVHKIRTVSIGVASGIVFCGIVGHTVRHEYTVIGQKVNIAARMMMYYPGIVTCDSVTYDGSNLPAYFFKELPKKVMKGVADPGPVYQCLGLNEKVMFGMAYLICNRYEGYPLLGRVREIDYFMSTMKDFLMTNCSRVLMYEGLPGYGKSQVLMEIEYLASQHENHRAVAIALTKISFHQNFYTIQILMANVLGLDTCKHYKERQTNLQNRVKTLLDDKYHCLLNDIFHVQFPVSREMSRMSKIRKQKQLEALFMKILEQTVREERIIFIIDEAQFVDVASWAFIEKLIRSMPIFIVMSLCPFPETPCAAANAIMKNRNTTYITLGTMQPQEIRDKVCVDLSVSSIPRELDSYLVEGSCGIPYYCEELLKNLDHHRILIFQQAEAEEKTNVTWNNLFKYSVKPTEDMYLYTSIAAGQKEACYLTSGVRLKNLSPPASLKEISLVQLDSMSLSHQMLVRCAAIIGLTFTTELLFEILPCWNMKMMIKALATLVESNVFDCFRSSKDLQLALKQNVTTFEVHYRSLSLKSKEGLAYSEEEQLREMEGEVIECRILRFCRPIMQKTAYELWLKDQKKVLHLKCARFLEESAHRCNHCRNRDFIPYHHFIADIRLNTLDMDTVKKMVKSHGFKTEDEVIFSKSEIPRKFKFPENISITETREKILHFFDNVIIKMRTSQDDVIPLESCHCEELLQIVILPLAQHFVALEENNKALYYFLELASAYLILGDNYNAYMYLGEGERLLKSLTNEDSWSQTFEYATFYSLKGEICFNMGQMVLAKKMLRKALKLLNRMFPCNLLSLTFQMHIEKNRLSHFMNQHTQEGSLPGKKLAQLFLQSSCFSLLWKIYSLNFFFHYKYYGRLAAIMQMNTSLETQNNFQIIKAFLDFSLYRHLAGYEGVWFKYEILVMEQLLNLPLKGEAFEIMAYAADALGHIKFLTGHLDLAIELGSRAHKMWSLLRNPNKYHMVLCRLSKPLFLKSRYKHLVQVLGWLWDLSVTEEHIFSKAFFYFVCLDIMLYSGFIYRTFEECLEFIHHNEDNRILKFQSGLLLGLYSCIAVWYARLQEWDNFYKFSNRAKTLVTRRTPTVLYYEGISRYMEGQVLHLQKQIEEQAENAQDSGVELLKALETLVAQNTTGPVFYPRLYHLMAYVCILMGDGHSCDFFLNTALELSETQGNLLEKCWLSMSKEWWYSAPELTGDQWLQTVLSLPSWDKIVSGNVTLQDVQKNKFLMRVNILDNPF
Source text: Heterologous Expression. To confirm that the gene we isolated encoded an adenylyl cyclase, we heterologously expressed the full-length cDNA in HEK293 cells. The full-length and truncated sAC cDNAs were expressed from the library vector (pBK-CMV) under the control of the cytomegalovirus promoter after deletion of the intervening bacterial promoter sequences (as an NheI-SpeI fragment). The truncated sAC cDNA (sACt) represented a library clone that was missing an exon. The resultant protein shifted the reading frame after valine 469 (FIG. 1; underline), introducing two incorrect amino acids (serine and cysteine) followed by a stop codon. Expression constructs were transiently introduced into HEK293 by lipofectamine—mediated transfection (Life Technologies, Grand Island, N.Y.). One or two days after transfection, cells were harvested, resuspended in lysis buffer (50 mM Tris-HCl, pH 7.5/1 mM EDTA/1 mM DTT/0.1 mg/ml Leupeptin/1 mM phenylmethylsulfonyl fluoride) and disrupted by microtip probe sonication on ice. Whole-cell sonicates were ultramicrocentrifuged at >100,000×g for 10 minutes. Supernatants were cleared by a second centrifugation to yield ‘cytosolic’ extracts. Pellets were resuspended in lysis buffer by passage through a 27.5-gauge needle to generate ‘particulate fraction. […]

[4] = target: T3, Purified recombinant sACt protein (Rattus norvegicus, UniProt Q9Z286); assay: In vitro adenylyl cyclase assay with purified recombinant sACt; assay type: biochemical; details: for % Basal (adenylyl cyclase activity relative to activity in the absence of any salts): salts at 50 mM
T3 construct: sACt, amino acids 1-469, plus a C-terminal Hexahistidine tag; Hexahistidine (C); made in house; host or cells: insect HiFive cells (baculovirus, Bac-to-Bac)
T3 sequence (Q9Z286 1-469): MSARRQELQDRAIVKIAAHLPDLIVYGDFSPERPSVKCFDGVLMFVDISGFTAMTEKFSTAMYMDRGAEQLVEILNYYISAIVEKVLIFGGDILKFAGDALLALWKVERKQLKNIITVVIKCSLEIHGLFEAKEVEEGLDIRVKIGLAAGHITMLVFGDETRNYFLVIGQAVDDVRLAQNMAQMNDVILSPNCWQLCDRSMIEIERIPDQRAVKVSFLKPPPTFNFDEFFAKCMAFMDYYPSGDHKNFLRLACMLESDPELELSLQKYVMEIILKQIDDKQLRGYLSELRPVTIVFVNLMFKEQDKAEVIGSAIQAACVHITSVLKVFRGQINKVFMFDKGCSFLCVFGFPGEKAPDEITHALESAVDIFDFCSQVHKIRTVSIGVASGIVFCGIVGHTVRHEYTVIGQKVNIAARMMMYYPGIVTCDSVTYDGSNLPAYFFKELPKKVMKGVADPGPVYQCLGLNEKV
Description: (§1) The cell lines were starved for bicarbonate (grown in HEPES-bufferred, NaHCO3-free D-MEM under ambient CO2) for 24 hours. Cellular cAMP accumulation and in vitro adenylyl cyclase activity in the presence of [a^32P] ATP and MnCl2 or MgCl2 were assayed. In vitro adenylyl cyclase assays were performed at pH 7.5 in Tris-buffered solutions.
Kinetic parameters were determined using KinetAsyst II (IntelliKinetics).

soluble adenylyl cyclase = details: cited from earlier work
sAC [5] = assay: Adenylyl cyclase activity in anti-sAC immunoprecipitates from rat testis cytosol; assay type: biochemical; details: 40 mM NaHCO3 or 100 μM Forskolin
Description: Rat testis were tested for sAC activity by immunoassay. Immunoprecipitates from rat testis cytosol were tested using either pre-immune serum or α-sAC antisera. […]. […]. Data in FIG. 4b are presented as pmol of cAMP formed over 20 minutes, and values represent averages of duplicate determinations with standard deviations indicated.

sACfl = sACfl (Rattus norvegicus, UniProt Q9Z286)
sACfl, sequence (Q9Z286 whole entry): as the sequence (Q9Z286 whole entry, the tested form may be a part) above
Description: as §1

[6] = tested on: HEK293/V cells, which express endogenous tmACs; details: for Cellular cAMP accumulation in HEK293/V: vector transfected cells
Description: as §1
Among mammalian adenylyl cyclases, sAC appears to be the only form regulated by bicarbonate ions.

Spirulina platensis CyaC [7] = target: T4, Spirulina platensis CyaC (Limnospira platensis, UniProt O32393); details: 0-60 mM NaHCO3, 100 μM ATP, 5 mM MnCl2
T4 sequence (O32393 1-1202): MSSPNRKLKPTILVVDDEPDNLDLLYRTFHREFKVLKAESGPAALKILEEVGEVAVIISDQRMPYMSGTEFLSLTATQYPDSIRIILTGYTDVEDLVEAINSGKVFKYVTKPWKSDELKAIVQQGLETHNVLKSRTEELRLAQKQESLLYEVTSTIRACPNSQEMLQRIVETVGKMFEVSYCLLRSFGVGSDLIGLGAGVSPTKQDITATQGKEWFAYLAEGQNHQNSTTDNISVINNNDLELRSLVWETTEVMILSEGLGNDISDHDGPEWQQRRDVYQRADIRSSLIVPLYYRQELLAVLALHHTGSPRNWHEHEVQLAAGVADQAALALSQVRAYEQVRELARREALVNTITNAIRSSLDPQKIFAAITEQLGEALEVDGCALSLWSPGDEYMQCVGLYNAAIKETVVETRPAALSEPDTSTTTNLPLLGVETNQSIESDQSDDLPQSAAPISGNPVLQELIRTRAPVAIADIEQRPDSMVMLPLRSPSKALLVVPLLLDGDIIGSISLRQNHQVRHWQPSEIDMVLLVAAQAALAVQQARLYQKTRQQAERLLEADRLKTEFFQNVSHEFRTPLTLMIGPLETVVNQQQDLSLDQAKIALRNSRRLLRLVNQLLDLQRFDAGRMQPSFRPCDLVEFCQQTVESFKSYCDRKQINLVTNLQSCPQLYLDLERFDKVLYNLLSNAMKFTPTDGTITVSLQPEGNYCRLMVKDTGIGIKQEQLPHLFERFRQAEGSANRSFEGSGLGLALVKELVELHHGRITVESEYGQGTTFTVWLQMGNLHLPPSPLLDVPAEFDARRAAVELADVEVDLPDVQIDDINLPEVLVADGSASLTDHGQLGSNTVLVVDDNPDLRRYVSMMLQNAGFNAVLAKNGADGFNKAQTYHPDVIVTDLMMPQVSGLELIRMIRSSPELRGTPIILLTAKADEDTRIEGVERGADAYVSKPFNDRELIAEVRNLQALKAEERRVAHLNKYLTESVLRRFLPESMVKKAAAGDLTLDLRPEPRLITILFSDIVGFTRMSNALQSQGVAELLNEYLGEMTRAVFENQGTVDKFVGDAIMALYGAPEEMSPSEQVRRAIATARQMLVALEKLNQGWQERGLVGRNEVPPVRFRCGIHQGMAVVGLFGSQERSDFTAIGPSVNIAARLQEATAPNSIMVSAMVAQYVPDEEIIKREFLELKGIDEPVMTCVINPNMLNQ

Spirulina platensis CyaC [8] = target: T4, Spirulina platensis CyaC; assay: biochemical
sAC [9] = assay: Ecdysone inducible sAC expression in transiently transfected NIH3T3 cells; assay type: cell-based; details: transient transfection
Source text: The commercially available (Invitrogen) ecdysone inducible system (No, D. et al., PNAS, 1996, 93:3346-3351) is based on an insect hormone regulated transcriptional activator, the ecdysone receptor (EcR). This system takes advantage of the specificity of EcR for its own response element, and the lack of any cross-reactivity by any mammalian transcription factor. We stably introduced both the EcR and its requisite partner, Retinoid X Receptor (RXR) into NIH3T3 cells. Additionally, to confirm the efficacy of this expression system, we performed pilot experiments with 3T3 cells transiently transfected with both plasmids. […] This induction was overcome by co-expression of sAC antisense (αsAA). The sequence was the entire sAC truncated (sAC trunc) sequence cloned in reverse orientation with respect to the promoter. The coding sequence for sAC trunc was approximately 1 through 1710 and the antisense was nucleotides 1710 through 1. For the antisense experiment, we transiently transfected three plasmids into NIH3T3 cells: 1) Ecdysone receptor/RXR expression plasmid; 2) sAC trunc expression plasmid (driven by ecdysone promoter) and 3) antisense expression plasmid (driven by ecdysone promoter).

[10] = target: sAC as co-expressed with mammalian CAP; assay: cell-based or functional assay
sAC [11] = target: T5, sAC (Rattus norvegicus, UniProt Q9Z286); assay: Co-expression of mammalian CAP with sAC
T5 construct: expressed in transfected cells
T5 sequence (Q9Z286 whole entry): as the sequence (Q9Z286 whole entry, the tested form may be a part) above

Sensitivity of sAC to P site ligand (truncated form of sAC): insensitivity
Molecule: Nc1ncnc2c1ncn2[C@H]1CC[C@@H](CO)O1 [2′,3′-dideoxyadenosine]

Molecule: Nc1ncnc2c1ncn2[C@@H]1O[C@H](COP(=O)(O)OP(=O)(O)OP(=O)(O)O)[C@@H](O)[C@H]1O [ATP]
Km (sAC [1]): ~1000 µM
Km (tmACs): ~100 µM
Km (sAC [2]): 1200 µM

Response of heterologously expressed sAC to stimulators of tmAC activity [3]: completely insensitive
Molecule: Nc1nc2c(ncn2[C@@H]2O[C@H](COP(=O)(O)OP(=O)(O)OP(O)(O)=S)[C@@H](O)[C@H]2O)c(=O)[nH]1 [GTPγS]

Molecule: O=C([O-])O.[K+] [KHCO3]
% Basal (adenylyl cyclase activity relative to activity in the absence of any salts) [4]: 412 ± 6.1%

Molecule: N[C@@H](Cc1ccc(O)c(O)c1)C(=O)O [L-dopa]
Potency of sAC inhibition relative to catechol estrogens (fold less potent) (soluble adenylyl cyclase): 1,000 fold

% Basal (adenylyl cyclase activity relative to activity in the absence of any salts) [4]: 75 ± 2.6%
Molecule: O=P([O-])([O-])O.[Na+].[Na+] [Na2HPO4]

Molecule: O=S([O-])[O-].[Na+].[Na+] [Na2SO3]
% Basal (adenylyl cyclase activity relative to activity in the absence of any salts) [4]: 164 ± 2.9%

% Basal (adenylyl cyclase activity relative to activity in the absence of any salts) [4]: 66 ± 4.6%
Molecule: O=S(=O)([O-])[O-].[Na+].[Na+] [Na2SO4]

Molecule: [Cl-].[Na+] [NaCl]
% Basal (adenylyl cyclase activity relative to activity in the absence of any salts) [4]: 93 ± 11.8%

Molecule: O=C(O)O [NaHCO3]
EC50 [4]: 25.4 ± 7.6 mM
Fold stimulation of purified enzyme ([4]; 0-80 mM NaHCO3, 10 mM ATP, 40 mM MgCl2): greater than seven-fold
% Basal (adenylyl cyclase activity relative to activity in the absence of any salts) [4]: 411 ± 5.3%
Effect on immunoprecipitated AC activity (sAC [5]): stimulated
Adenylyl cyclase activity in cellular lysates from HEK293/sACfl (sACfl; 50 mM NaHCO3): stimulated
Cellular cAMP accumulation in HEK293/sACfl (sACfl; after 24 hours bicarbonate starvation): stimulated cAMP accumulation
Cellular cAMP accumulation in HEK293/V [6]: not in vector transfected HEK293 cells
Cellular cAMP accumulation in HEK293/V ([6]; listed as bicarbonate): unaffected
tmAC activity submaximally stimulated by forskolin ([6]; with forskolin): insensitive
Fold stimulation of CyaC AC activity (Spirulina platensis CyaC [7]): 2.5 fold
EC50 (Spirulina platensis CyaC [8]): 18.8 ± 1.6 mM

Molecule: O=S([O-])O.[Na+] [NaHSO3]
% Basal (adenylyl cyclase activity relative to activity in the absence of any salts) [4]: 138 ± 4.6%

Molecule: NCCc1ccc(O)c(O)c1 [dopamine]
Potency of sAC inhibition relative to catechol estrogens (fold less potent) (soluble adenylyl cyclase): 1,000 fold

Molecule: NC[C@H](O)c1ccc(O)c(O)c1 [norepinephrine]
Potency of sAC inhibition relative to catechol estrogens (fold less potent) (soluble adenylyl cyclase): 1,000 fold

Molecule: CC(C)CC[C@@H](O)[C@](C)(O)[C@H]1CC[C@@]2(O)C3=CC(=O)[C@@H]4C[C@@H](O)[C@@H](O)C[C@]4(C)[C@H]3CC[C@]12C [ponasterone A]
sAC activity in cells with ecdysone inducible sAC expression (sAC [9]): dependent increase in sAC activity

sAC activity on co-expression [10]: 4 fold
Molecule: mammalian ortholog of yeast CAP (Cyclase Associated Protein)

Increase of sAC activity on co-expression (sAC [11]): approximately four-fold
B1: mammalian CAP: mammalian ortholog of yeast Cyclase Associated Protein, co-expressed with sAC (protein, UniProt Q01518 2-475, looked up)
Adenylyl cyclase-associated …: ADMQNLVERLERAVGRLEAVSHTSDMHRGYADSPSKAGAAPYVQAFDSLLAGPVAEYLKISKEIGGDVQKHAEMVHTGLKLERALLVTASQCQQPAENKLSDLLAPISEQIKEVITFREKNRGSKLFNHLSAVSESIQALGWVAMAPKPGPYVKEMNDAAMFYTNRVLKEYKDVDKKHVDWVKAYLSIWTELQAYIKEFHTTGLAWSKTGPVAKELSGLPSGPSAGSCPPPPPPCPPPPPVSTISCSYESASRSSLFAQINQGESITHALKHVSDDMKTHKNPALKAQSGPVRSGPKPFSAPKPQTSPSPKRATKKEPAVLELEGKKWRVENQENVSNLVIEDTELKQVAYIYKCVNTTLQIKGKINSITVDNCKKLGLVFDDVVGIVEIINSKDVKVQVMGKVPTISINKTDGCHAYLSKNSLDCEIVSAKSSEMNVLIPTEGGDFNEFPVPEQFKTLWNGQKLVTTVTEIAG
